Assay results as given in the NIST ThermoML archive (doi:10.1021/je900387e).

Assay: xn = mol fraction of the nth substance listed
Settings: Liquid, Pycnometric method

Cn1ccnc1 [1-methylimidazole] + O=C=O
Settings | mass density [kg/m3]
327.6 K, 13060 kPa, x1 = 0.0247 | 704
327.6 K, 13110 kPa, x1 = 0.0102 | 649
327.6 K, 13250 kPa, x1 = 0.0247 | 711
327.6 K, 13400 kPa, x1 = 0.0102 | 663
327.6 K, 13460 kPa, x1 = 0.0247 | 718
327.6 K, 13670 kPa, x1 = 0.0247 | 724
327.6 K, 13730 kPa, x1 = 0.0102 | 677
327.6 K, 13900 kPa, x1 = 0.0247 | 731
327.6 K, 14110 kPa, x1 = 0.0102 | 692
327.6 K, 14140 kPa, x1 = 0.0247 | 738
327.6 K, 14190 kPa, x1 = 0.0487 | 791
327.6 K, 14340 kPa, x1 = 0.0487 | 795
327.6 K, 14410 kPa, x1 = 0.0247 | 745
327.6 K, 14560 kPa, x1 = 0.0102 | 707
327.6 K, 14570 kPa, x1 = 0.0487 | 799
327.6 K, 14710 kPa, x1 = 0.0247 | 753
327.6 K, 14830 kPa, x1 = 0.0487 | 804
327.6 K, 15010 kPa, x1 = 0.0247 | 760
327.6 K, 15080 kPa, x1 = 0.0487 | 809
327.6 K, 15100 kPa, x1 = 0.0102 | 723
327.6 K, 15270 kPa, x1 = 0.0247 | 766
327.6 K, 15370 kPa, x1 = 0.0487 | 814
327.6 K, 15550 kPa, x1 = 0.0247 | 772
327.6 K, 15660 kPa, x1 = 0.0487 | 819
327.6 K, 15730 kPa, x1 = 0.0102 | 740
327.6 K, 15940 kPa, x1 = 0.0487 | 825
327.6 K, 15970 kPa, x1 = 0.0247 | 779
327.6 K, 16080 kPa, x1 = 0.1024 | 899
327.6 K, 16170 kPa, x1 = 0.1024 | 900
327.6 K, 16280 kPa, x1 = 0.0487 | 829
327.6 K, 16300 kPa, x1 = 0.1024 | 901
327.6 K, 16400 kPa, x1 = 0.0247 | 787
327.6 K, 16420 kPa, x1 = 0.1024 | 903
327.6 K, 16460 kPa, x1 = 0.0102 | 758
327.6 K, 16540 kPa, x1 = 0.1024 | 904
327.6 K, 16640 kPa, x1 = 0.0247 | 791
327.6 K, 16650 kPa, x1 = 0.0487 | 836
327.6 K, 16650 kPa, x1 = 0.1024 | 905
327.6 K, 16780 kPa, x1 = 0.1024 | 906
327.6 K, 16930 kPa, x1 = 0.1024 | 908
327.6 K, 16980 kPa, x1 = 0.0247 | 798
327.6 K, 17060 kPa, x1 = 0.1024 | 909
327.6 K, 17130 kPa, x1 = 0.0102 | 771
327.6 K, 17210 kPa, x1 = 0.0247 | 802
327.6 K, 17210 kPa, x1 = 0.1024 | 911
327.6 K, 17330 kPa, x1 = 0.0487 | 846
327.6 K, 17390 kPa, x1 = 0.1024 | 912
327.6 K, 17490 kPa, x1 = 0.1024 | 913
327.6 K, 17600 kPa, x1 = 0.0247 | 808
327.6 K, 17620 kPa, x1 = 0.1024 | 914
327.6 K, 17740 kPa, x1 = 0.0487 | 851
327.6 K, 17750 kPa, x1 = 0.1024 | 916
327.6 K, 17850 kPa, x1 = 0.0102 | 786
327.6 K, 17870 kPa, x1 = 0.0247 | 813
327.6 K, 17960 kPa, x1 = 0.1024 | 918
327.6 K, 18080 kPa, x1 = 0.1024 | 919
327.6 K, 18200 kPa, x1 = 0.0487 | 857
327.6 K, 18230 kPa, x1 = 0.1024 | 920
327.6 K, 18380 kPa, x1 = 0.0102 | 795
327.6 K, 18380 kPa, x1 = 0.1024 | 922
327.6 K, 18580 kPa, x1 = 0.1024 | 923
327.6 K, 18690 kPa, x1 = 0.0487 | 863
327.6 K, 18770 kPa, x1 = 0.1024 | 924
327.6 K, 18840 kPa, x1 = 0.0102 | 802
327.6 K, 18940 kPa, x1 = 0.1024 | 925
332.4 K, 12410 kPa, x1 = 0.0102 | 539
332.4 K, 12550 kPa, x1 = 0.0102 | 548
332.4 K, 12670 kPa, x1 = 0.0102 | 558
332.4 K, 12820 kPa, x1 = 0.0102 | 568
332.4 K, 12980 kPa, x1 = 0.0102 | 578
332.4 K, 13160 kPa, x1 = 0.0102 | 589
